Here are results for 2 compounds from patent US6960470B1 (priority 1998, dated 2005).

The experiment deals with hippocampal slices from wt and Δ9 mutant (PS-1) animals. Type of experiment: cell-based.

On to AP5, for which the “AP5-sensitive potentials during tetanus, difference between wt and Δ9 mutant slices” value was “no statistically significant difference between the two groups”.
For the compound `CN1C(=O)CN=C(c2ccccc2F)c2cc([N+](=O)[O-])ccc21` [flunitrazepam], the “difference in potentiation between wt and Δ9 mutation slices post-tetanus” value was “no statistically significant difference between the two groups”.
